Measured values reported in ChEMBL document CHEMBL3507680, “University of Dundee, Gates Library screen for HepG2 cell viability”.

Test: Human HepG2 cell viability assay in 384 well format
Format: toxicity, cell-based
Set-up: dose 125 nL, time 70.5 hour; cytotoxicity at 70.5 h: concentration not given beside the values
Details: HepG2 cells, read-out: Inhibition

COC(=O)CC1CN(Cc2c(Cl)ccc3cccnc23)CCO1 (stereo not given)
cytotoxicity at 70.5 h: -12.3%

CC(CNC(=O)NCc1ccco1)CC1(C)OCCO1 (stereo not given)
cytotoxicity at 70.5 h: 15.5%

CC(CNC(=O)NCc1ccc2c(c1)OCO2)CC1(C)OCCO1 (stereo not given)
cytotoxicity at 70.5 h: -5.24%

CCc1nsc(N2CCN(Cc3ccno3)CC2)n1
cytotoxicity at 70.5 h: -0.144%

CC(O)CN1CCC(CN(C)Cc2cc(C#N)ccc2F)CC1 (stereo not given)
cytotoxicity at 70.5 h: -7.5%

Clc1cccc(CNc2cnn(CCN3CCCCC3)c2)c1
cytotoxicity at 70.5 h: -11.9%

CC1CN(C(=O)NCCc2nc(C(C)C)no2)CCO1 (stereo not given)
cytotoxicity at 70.5 h: 10.3%

Cc1nn(C)c2ncc(CN3CCCCCC3)cc12
cytotoxicity at 70.5 h: -5.07%

CCN1CCOC(CNCc2c(Cl)nc3ccccn23)C1 (stereo not given)
cytotoxicity at 70.5 h: -21.6%

CCCn1nnnc1COc1cc(OC)ccc1C(N)=O
cytotoxicity at 70.5 h: -7.31%

Cc1noc(C)c1CN(C)Cn1c(=O)oc2ccccc21
cytotoxicity at 70.5 h: 39.4%

O=C(COc1ccccc1)N1CCCC1c1ccc[nH]1 (stereo not given)
cytotoxicity at 70.5 h: -17.9%

Cc1noc(C)c1CN(C)C(=O)Cn1c(=O)n(C)c2ccccc21
cytotoxicity at 70.5 h: -15.9%

CC(C)C(C(=O)N1CCN(Cc2ccncc2)CC1)n1cncn1 (stereo not given)
cytotoxicity at 70.5 h: -9.68%

CCC(C)NC(=O)Cc1c(C)nc2c(c1C)c(=O)[nH]n2C (stereo not given)
cytotoxicity at 70.5 h: -8.46%

Cc1cc(C)n(C2CN(Cc3noc(-c4ccccc4)n3)C2)n1
cytotoxicity at 70.5 h: -4.76%

CCS(=O)(=O)CCNC(=O)c1ccc(-c2ccc(C)cc2)cc1F
cytotoxicity at 70.5 h: -6.67%

CC(C)(C)OC(=O)CNC(=O)CCc1nnc(-c2ccsc2)o1
cytotoxicity at 70.5 h: 0.905%

COc1ccc(-c2nc(CN3CC(n4cc(C)cn4)C3)no2)cc1
cytotoxicity at 70.5 h: -4.24%

O=C(NC1(c2cccc(F)c2)CCOCC1)c1ccccn1
cytotoxicity at 70.5 h: 12%

NC(=O)CSCC(=O)N1CCc2cc(Cl)cc(Cl)c2C1
cytotoxicity at 70.5 h: -10.4%

Cc1cc(OCC(=O)NC(C)c2ccc(N3CCOCC3)cc2)no1 (stereo not given)
cytotoxicity at 70.5 h: -3.83%

CCc1ccc(C2CCCCCN2Cc2nc(CCOC)no2)o1 (stereo not given)
cytotoxicity at 70.5 h: -6.85%

Clc1ccc(CN2CCCC(Cn3cncn3)C2)c2ncccc12 (stereo not given)
cytotoxicity at 70.5 h: -8.25%

CCc1noc(CN(C)Cc2ccc(N3CCCCC3)cc2)n1
cytotoxicity at 70.5 h: -7.61%

CC(C)c1noc(CN(Cc2cccs2)C2CC2)n1
cytotoxicity at 70.5 h: 6.94%

COCCN(C)Cc1ccc(OC)c(OC(F)F)c1
cytotoxicity at 70.5 h: -5.27%

COCCC(=O)Nc1ccnc(Oc2ccccc2)c1
cytotoxicity at 70.5 h: 2.24%

O=C(COc1cccc2c1CCC2=O)NCCOc1ccccc1
cytotoxicity at 70.5 h: 15.4%

COc1ccc(NC(=O)CNc2ccc(Br)cc2F)cc1
cytotoxicity at 70.5 h: -1.21%

CCN(CC)C(=O)c1ccc(NC(=O)CNc2ccc(Br)cc2F)cc1
cytotoxicity at 70.5 h: 4.87%

Cc1cc(=O)n2ncnc2n1CC(O)c1ccccc1Cl (stereo not given)
cytotoxicity at 70.5 h: -3.15%

Cc1ccc(S(=O)(=O)Nc2ccc(-n3cccc3C(=O)O)c(C)c2)s1
cytotoxicity at 70.5 h: -3.61%

Cc1ccc(-c2cc(C(=O)NC(C)C(=O)N3CCCCC3)on2)cc1 (stereo not given)
cytotoxicity at 70.5 h: 5.48%

Cc1ccccc1-c1cc(NC(=O)CC(C)C)n(CCO)n1
cytotoxicity at 70.5 h: 5.13%

CC(=O)Nc1nc(CN2CCCCC2Cn2cccn2)cs1 (stereo not given)
cytotoxicity at 70.5 h: 6.38%

CCCNC(=O)Nc1cccc2c1CCN(S(C)(=O)=O)C2
cytotoxicity at 70.5 h: -1.5%

Cc1c(C(=O)NCC2CCCO2)nnn1-c1cccc2c1CCN(C)C2 (stereo not given)
cytotoxicity at 70.5 h: 19.8%

Cc1cccc(CNC(=O)CNc2cc(CO)ccc2Cl)c1
cytotoxicity at 70.5 h: -3.8%

CCN(C(=O)CCCOc1ccccc1F)c1ccncc1
cytotoxicity at 70.5 h: 1.58%

CN(C)c1cc(C(=O)NCCc2nnc(-c3ccco3)[nH]2)ccn1
cytotoxicity at 70.5 h: -5.78%

NC(=O)Nc1cccc(Oc2ccccn2)c1
cytotoxicity at 70.5 h: -4.42%

Cn1ccnc1CN(CCCO)C1CCCc2ccccc21 (stereo not given)
cytotoxicity at 70.5 h: 7.41%

OCc1ccc(Cl)c(NCc2cccnc2)c1
cytotoxicity at 70.5 h: 19.4%

O=C(C1CC1)N1CCCC1C1CCN(Cc2ccccc2)CC1 (stereo not given)
cytotoxicity at 70.5 h: 1.42%

c1coc(-c2nnc(CN3CCCC(CN4CCCCCC4)C3)o2)c1 (stereo not given)
cytotoxicity at 70.5 h: -1.85%

Cn1ccnc1CNC(=O)N(CCCO)C1CCCc2ccccc21 (stereo not given)
cytotoxicity at 70.5 h: 21.5%

CN(C)C(=O)Cc1nc(CN2CCOC(Cn3cccn3)C2)cs1 (stereo not given)
cytotoxicity at 70.5 h: 1.45%

CC(C)C(=O)N1CCN(Cc2csc(-c3ncccn3)n2)CC1
cytotoxicity at 70.5 h: -2.05%

Cc1nc(C)n(CC2CCCN(Cc3nnc(C(C)(C)C)o3)C2)n1 (stereo not given)
cytotoxicity at 70.5 h: -0.371%

N#Cc1ncn(CCC(=O)Nc2c(Cl)cccc2Cl)n1
cytotoxicity at 70.5 h: -6.06%

Cc1ccc(NC(=O)N2CCOC(C)C2)cc1Cl (stereo not given)
cytotoxicity at 70.5 h: -7.15%

CC(C)(C)NC(=O)CN1CCN(C(=O)Nc2ccc(F)cc2F)CC1
cytotoxicity at 70.5 h: 9.46%

Cc1nnc(NC(=O)NC2CCOc3ccccc32)s1 (stereo not given)
cytotoxicity at 70.5 h: -9.45%

COc1cccc(CN(C)C(=O)CCC(=O)c2ccc(Cl)cc2)c1OC
cytotoxicity at 70.5 h: -10.4%

COCCCN1CCC(NC(=O)C(C)C)CC1
cytotoxicity at 70.5 h: 7.82%

CCNC(=O)c1ccoc1CN1c2ccccc2CC1C (stereo not given)
cytotoxicity at 70.5 h: -5.21%

Cc1noc(C)c1CNC(=O)N1CCC(CO)CC1
cytotoxicity at 70.5 h: -3.59%

Cc1ccc(C(=O)N2CCSCC2)cc1NC(=O)Cn1cncn1
cytotoxicity at 70.5 h: -6.81%

Cc1cccc(-n2cc(C(=O)N3CCn4c(C)nnc4C3)nn2)c1
cytotoxicity at 70.5 h: 9.22%

Cc1cc(-c2nnn(CCNS(C)(=O)=O)n2)ccc1F
cytotoxicity at 70.5 h: 1.75%

O=C(NCC(O)c1cccc(F)c1)c1cccnc1O (stereo not given)
cytotoxicity at 70.5 h: -5.45%

Cc1ccc(OCC(=O)NCC(C)C)nc1
cytotoxicity at 70.5 h: -3.31%

N#Cc1ncn(CC(=O)Nc2cc(Cl)ccc2F)n1
cytotoxicity at 70.5 h: -3.28%

CSc1ccc(NS(=O)(=O)c2cnn(C)c2)cn1
cytotoxicity at 70.5 h: -1.76%

N#CCSCCCN1CCN(C(=O)c2ccc(Cl)cc2)CC1
cytotoxicity at 70.5 h: 6.83%

Cc1ccc(C(=O)N2CCN(CCCSCC#N)CC2)o1
cytotoxicity at 70.5 h: -3.91%

CCN(C(c1cccnc1)c1ccc2c(c1)CCO2)S(C)(=O)=O (stereo not given)
cytotoxicity at 70.5 h: -4.03%

CCN1CCCN(C(=O)c2cnc(OC(C)C)c(Cl)c2)CC1
cytotoxicity at 70.5 h: 9.31%

CCc1nnc(CNCC2CCCN2c2cccnn2)o1 (stereo not given)
cytotoxicity at 70.5 h: -3.72%

CC(C)Cc1noc(CN2CCN(C(=O)c3ccco3)CC2)n1
cytotoxicity at 70.5 h: -9.38%

Cc1cnn(CC2CCCN2C(=O)CCCc2nc(C)no2)c1 (stereo not given)
cytotoxicity at 70.5 h: 32.9%

CCc1csc(C2CCCN(C(=O)c3ccnc(N(C)C)c3)C2)n1 (stereo not given)
cytotoxicity at 70.5 h: 19.9%

CCc1nnc(C(C)N2CCCN(C(=O)Oc3ccccc3)CC2)o1 (stereo not given)
cytotoxicity at 70.5 h: 2.06%

CCC(=O)Nc1ccc(C(C)NC(=O)COCCOC)cc1 (stereo not given)
cytotoxicity at 70.5 h: 3.18%

CN(C)C(=O)N1CCN(CCn2nc3ccccn3c2=O)CC1
cytotoxicity at 70.5 h: -2.81%

CCOCC1CN(Cc2cnn(C)c2)Cc2ncn(C)c21 (stereo not given)
cytotoxicity at 70.5 h: -9.79%

Cc1nccc([C@H]2C[C@@H]3CCN(C(=O)c4c(C)noc4C)C[C@H]3O2)n1
cytotoxicity at 70.5 h: 7.48%

O=C1CC2(CCN(Cc3ccoc3)C2)CN1c1cncnc1 (stereo not given)
cytotoxicity at 70.5 h: -4.55%

CN(C)C1COC2(CCN(Cc3ccncc3)CC2)C1 (stereo not given)
cytotoxicity at 70.5 h: -7.75%

CC(=O)N1CCC2(CCCN(C(=O)c3ccc(Cl)c(C(F)(F)F)c3)C2)C1 (stereo not given)
cytotoxicity at 70.5 h: -14.2%

CCOCC1CN(c2ncccn2)Cc2cnn(CC3CCOCC3)c21 (stereo not given)
cytotoxicity at 70.5 h: 9.85%

Cc1ccc(CNC(=O)C2=NOC3(CCCNC3)C2)cc1 (stereo not given)
cytotoxicity at 70.5 h: -13.2%

O=C(NCC1Cn2nnc(-c3ccoc3)c2CO1)c1ccc[nH]1 (stereo not given)
cytotoxicity at 70.5 h: -9.78%

O=C(c1ccccn1)N1C[C@@H](OCc2cccnc2)[C@H]2OCCC[C@@H]21
cytotoxicity at 70.5 h: 9.73%

Cc1nnn2c1COCC(CNC(=O)c1ccc[nH]1)C2 (stereo not given)
cytotoxicity at 70.5 h: 7.03%

Cc1nc(CN2CCO[C@@H]3CN(C(=O)CC4CC4)CC[C@@H]3C2)cs1
cytotoxicity at 70.5 h: -13.3%

CC(C)NC(=O)N1CCC2(CC(=O)N(c3ccccc3)C2)C1 (stereo not given)
cytotoxicity at 70.5 h: 17.9%

Cc1nc([C@@H]2C[C@@H]3CCN(C(=O)c4ccsc4)C[C@H]3O2)no1
cytotoxicity at 70.5 h: -4.84%

O=C(NCC1CC1)C1=NOC2(CCN(S(=O)(=O)c3ccc(F)cc3)C2)C1 (stereo not given)
cytotoxicity at 70.5 h: -0.024%

O=C(NCc1ccc(Cl)cc1)C1=NOC2(CCNC2)C1 (stereo not given)
cytotoxicity at 70.5 h: -9.72%

O=C(NCc1ccccc1)C1=NOC2(CCNC2)C1 (stereo not given)
cytotoxicity at 70.5 h: -11%

O=C(c1ccoc1)N1CC[C@@H](N2CCOCC2)[C@@H]1Cc1ccccc1
cytotoxicity at 70.5 h: -10.9%

CCOCC1CN(Cc2cnn(C)c2)Cc2c1cnn2CC (stereo not given)
cytotoxicity at 70.5 h: 7.67%

CCOCC1CN(Cc2ccc(F)cc2)Cc2nn(C)cc21 (stereo not given)
cytotoxicity at 70.5 h: -11.9%

Cn1cc(N2CC3(COCCN(Cc4nccs4)C3)OCC2=O)cn1 (stereo not given)
cytotoxicity at 70.5 h: -9.93%

COCCC(=O)N1CC[C@@H](N2CCOCC2)[C@@H]1Cc1ccccc1
cytotoxicity at 70.5 h: -8.94%

O=C(c1cnccn1)N1C[C@@H](OCc2cccnc2)[C@H]2OCCC[C@H]21
cytotoxicity at 70.5 h: 8.16%

COCC(=O)N1C[C@@H](OCc2cccnc2)[C@H]2OCCC[C@@H]21
cytotoxicity at 70.5 h: 14.3%

c1csc(CN2CCc3nnc(COc4cncnc4)n3CC2)c1
cytotoxicity at 70.5 h: -6.3%

N#Cc1cccc(N2CC3(CCN(C(=O)c4ccncc4)C3)CC2=O)c1 (stereo not given)
cytotoxicity at 70.5 h: -5.96%

CCOCC1CN(Cc2cccnc2)Cc2nn(C)cc21 (stereo not given)
cytotoxicity at 70.5 h: -11.3%

Cc1nnc(N2CC[C@H]3O[C@H](C(=O)NCc4ccccn4)CC[C@H]32)s1
cytotoxicity at 70.5 h: -6.62%

O=C1NC2(CCN(Cc3ccoc3)CC2)CC1c1ccncc1 (stereo not given)
cytotoxicity at 70.5 h: 11%

CCn1ncc2c1C(COCC1CC1)CN(c1ccncn1)C2 (stereo not given)
cytotoxicity at 70.5 h: -8.04%

CN(Cc1ccco1)[C@@H]1CN(Cc2nccs2)C[C@@H]2CCCO[C@@H]21
cytotoxicity at 70.5 h: -5.05%

CN(Cc1cncnc1)[C@@H]1CN(Cc2ccco2)C[C@@H]2CCCO[C@@H]21
cytotoxicity at 70.5 h: -14.6%

CCOCC1CN(c2ccncn2)Cc2cnn(CC)c21 (stereo not given)
cytotoxicity at 70.5 h: -8.6%

O=C1NC2(CCN(Cc3ccsc3)CC2)CC1c1ccncc1 (stereo not given)
cytotoxicity at 70.5 h: -9.73%

COCC1CN(c2ccncn2)Cc2cnn(CC3CCCC3)c21 (stereo not given)
cytotoxicity at 70.5 h: -11.3%

N#Cc1cccc(CN2CCC3(CC2)CC(c2ccncc2)C(=O)N3)c1 (stereo not given)
cytotoxicity at 70.5 h: -0.0024%

Cc1nc(CN2CCO[C@@H]3CN(Cc4cccs4)C[C@@H]3C2)cs1
cytotoxicity at 70.5 h: -4.54%

c1csc(CN2CCOCC3(CCN(C4CCOCC4)C3)C2)c1 (stereo not given)
cytotoxicity at 70.5 h: -16.8%

O=C(O)c1c(-c2cccnc2)ncc2c1CCN(Cc1ccccn1)C2
cytotoxicity at 70.5 h: -8.57%

CN(Cc1ccco1)[C@@H]1CN(Cc2ccccn2)C[C@@H]2CCCO[C@@H]21
cytotoxicity at 70.5 h: -9.21%
